Measurements from patent US7173062B2, “Method for the improvement of skin wrinkles using retinyl retinoate” (Enprani Co., Ltd., priority 2001, dated 2007).

Test system: normal human fibroblast (Newborn)
Assay: Cell toxicity test (MTT method)
Assay type: cell-based
Conditions: comparison in words
Protocol: Cell toxicity of the compound of formula (1) is examined at concentrations ranging from 10^−6 to 10^−3%(W/V) using normal human fibroblast (Newborn), and the skin irritating property is examined by a patch test for the skin of normal adults. Further, the effect of increasing the collagen synthesis in a human fibroblast cell is measured to identify the cell regeneration effect of the compound of formula (1), photostability is identified by measuring ^1H NMR of the compound of formula (1) after the compound is irradiated by UV light (356 nm) at certain intervals of time, and thermal stability is identified by quantifying the amount at 40° C. (Experiments 1 to 5).
In order to verify the primary stability as a material for medicines and cosmetics, cell toxicity of the retinal retaliate of formula (1) was determined according to MTT method (see: Mossman T., Rapid calorimetric assay for cellular growth & amp;survival:application to proliferation & amp;cytotoxity assays. Journal of Immunological Methods 65, 55–63, 1983) using normal human fibroblast (Newborn) and the results are shown in FIG. 1.

In the case of `CC1=C(/C=C/C(C)=C/C=C/C(C)=C/COC(=O)/C=C(C)/C=C/C=C(C)/C=C/C2=C(C)CCCC2(C)C)C(C)(C)CCC1` [Compound of formula (1), Retinyl retinoate], the “cell toxicity (FIG. 1)” value is reported as “lower intracellular toxicity than retinol, retinoic acid, or derivatives thereof”.
